Common to all, as to type: biochemical
Series [1] has as its target T1, ZNFN3A1 (Homo sapiens, UniProt Q9H7B4, K13N).
T1 sequence (Q9H7B4 1-428 K13N): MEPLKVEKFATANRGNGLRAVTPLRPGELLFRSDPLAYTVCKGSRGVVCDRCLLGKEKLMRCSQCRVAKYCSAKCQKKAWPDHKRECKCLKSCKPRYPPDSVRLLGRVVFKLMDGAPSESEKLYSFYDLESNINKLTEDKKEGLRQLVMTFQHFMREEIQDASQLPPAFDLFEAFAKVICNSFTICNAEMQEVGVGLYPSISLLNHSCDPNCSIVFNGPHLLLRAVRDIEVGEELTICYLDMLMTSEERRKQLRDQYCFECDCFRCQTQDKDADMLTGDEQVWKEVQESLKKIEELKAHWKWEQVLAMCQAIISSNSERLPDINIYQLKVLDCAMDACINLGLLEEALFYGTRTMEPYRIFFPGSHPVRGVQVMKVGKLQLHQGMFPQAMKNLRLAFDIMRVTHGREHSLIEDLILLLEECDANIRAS
Put plainly: In vitro histone H3-K4 methyltransferase assay, peptide competition. Further details: made in house; host or cells: transfected mammalian cells (293T), anti-Flag immunoprecipitate. As to conditions: recombinant histone H3, SAM and HSP90A, addition of competitor peptide, FIG. 2b. As to the method:
H3-K4 specific methyltransferase activity was examined by western blot analysis of recombinant Xenopus H3 protein (UBI) incubated with the immunoprecipitants in the presence of 20 μM unlabeled S-adenosyl-L-methionine (SAM) and 2 μg of HSP90A for 1 hr at 30° C., using antibodies against mono-methylated (Abcam; ab8895), di-methylated (Abcam; ab7766), tri-methylated (Abcam; ab8580) H3-K4, total H3 (Abcam; ab1791), or tri-methylated H3-K9 (UBI; 07523). Lysates of cells transfected with plasmid expressing Flag-tagged wild-type ZNFN3A1, mutant ZNFN3A1, SET7/9, SUV39H1, or mock were immunoprecipitated with anti-Flag antibody (Sigma). Peptides to di-methylated H3-K4 (Abcam; ab7768, ARTK-Me2-QTAR-GGC) and di-methylated H3-K9 (Abcam; ab1772, QTARK-Me2-ST-GGC) were used for competition assay. Recombinant ZNFN3A1 was expressed in E. coli bacteria with plasmids expressing GST-fused ZNFN3A1 or in Sf9 cells with plasmids expressing HA-tagged ZNFN3A1. H3-methyltransferase activity was also analyzed in the presence or absence of 0.04 U SAHH (Sigma) using immunoprecipitated ZNFN3A1 protein or recombinant ZNFN3A1 purified from Sf9 cells.
Since proteins containing SET domain play a crucial role in methylation of histone H3 lysine 4 (H3-K4) or lysine 9 (H3-K9), we investigated whether ZNFN3A1 has an ability to methylate H3-K4 or H3-K9. […]

Series [2] deals with T1, ZNFN3A1. Nature of the series: In vitro HMTase assay of SET domain of ZNFN3A1 with/without recombinant HSP90A. Details: made in house; host or cells: transfected mammalian cells (293T), anti-Flag immunoprecipitate. The settings on record: wild-type SET of ZNFN3A1, SAM and histones, with recombinant HSP90A, FIG. 1c lane 4 and 5. On the procedure: (§1) 293T cells were transfected with plasmid expressing Flag-tagged ZNFN3A1 (pFLAG-CMV-ZNFN3A1), SET7 protein or mock, and purified tagged proteins by immunoprecipitation with anti-Flag antibody. In vitro HMTase assay was performed according to the protocol (1) with a slight modification. Briefly, immunoprecipitated protein was incubated with 25 μg of free histones (mixture of H3, H2B, H2A and H4; Roche) as substrates and 2.5 μCi S-adenosyl-L-[methyl-^3H] methionine as methyl donor in a mixture of 40 μl of methylase activity buffer (50 mM Tris-HCl pH 8.5, 20 mM KCl, 10 mM MgCl2, 10 mM β-mercaptoethanol, 250 mM sucrose), for 60 min at 37° C. […]
Proteins containing the wild-type SET domain of ZNFN3A1 and two forms of mutant protein that lacked one of the two regions were prepared, and cross-linked equal amount of each protein with [^3H]-labeled SAM by exposure to UV-radiation. […] The wild-type SET or control recombinant protein of SET7 was further incubated with [^3H]-labeled SAM and a mixture of histones as substrates, and labeled protein after the separation on SDS-PAGE was measured. As expected, a strong band corresponding to [^3H]-labeled histone H3 protein by the control SET7 (FIG. 1c, lane 3) was detected. When substrates were incubated with the wild-type SET of ZNFN3A1, a faint band corresponding to labeled histone H3 was detected, which was not observed with mock (FIG. 1c, lane 1 and 2). […]

Series [3] has as its target T1, ZNFN3A1. Nature of the series: In vitro histone H3 methyltransferase activity in the presence or absence of SAHH. Further details: made in house; host or cells: 293T cells transfected with pFLAG-CMV-ZNFN3A1, anti-Flag immunoprecipitate. The settings on record: presence versus absence of SAHH, FIG. 3d. On the procedure:
as §1
H3-K4 specific methyltransferase activity was examined by western blot analysis of recombinant Xenopus H3 protein (UBI) incubated with the immunoprecipitants in the presence of 20 μM unlabeled S-adenosyl-L-methionine (SAM) and 2 μg of HSP90A for 1 hr at 30° C., using antibodies against mono-methylated (Abcam; ab8895), di-methylated (Abcam; ab7766), tri-methylated (Abcam; ab8580) H3-K4, total H3 (Abcam; ab1791), or tri-methylated H3-K9 (UBI; 07523). […] H3-methyltransferase activity was also analyzed in the presence or absence of 0.04 U SAHH (Sigma) using immunoprecipitated ZNFN3A1 protein or recombinant ZNFN3A1 purified from Sf9 cells. […]

As for “ARTK-Me2-QTAR-GGC [di-methylated H3-K4 peptides]”, in series [1], the “di- and tri-methylation of H3-K4 by wild-type ZNFN3A1” value is listed as “completely inhibited”.

“HSP90A: recombinant 90-kD heat shock protein, interacting protein of ZNFN3A1”: the “methyl transferase activity onto histone H3” value in series [2] was “enhanced methyl transferase activity”.

Consider “QTARK-Me2-ST-GGC [di-methylated H3-K9 peptides]”, for which the “di- and tri-methylation of H3-K4 by wild-type ZNFN3A1” value in series [1] was “unaffected”.

Take “S-adenosyl homocysteine hydrolase [SAHH]”: in series [3], the “H3 methyltransferase activity of Flag-tagged ZNFN3A1” value was “significantly higher”.
